Experimental data from ChEMBL document CHEMBL1139580, “Pyrrolo[1,2-a][1,4]benzodiazepine: a novel class of non-azole anti-dermatophyte anti-fungal agents” (Bioorg Med Chem Lett, 2005).
Converted amounts (≈) assume the structure as drawn.

Experiments:
Candida parapsilosis = experiment: Minimum inhibitory concentration against Candida B66126 parapsilosis by microdilution method; format: functional; conditions: Lodderomyces parapsilosis
Aspergillus fumigatus = experiment: Minimum inhibitory concentration against Aspergillus fumigatus B42928 by microdilution method; format: functional
[1] = Minimum inhibitory concentration against Trichophyton mentagrophytes B70554 by microdilution method; format: functional; conditions: Trichophyton benhamiae
[2] = Minimum inhibitory concentration against Microsporum canis B68128 by microdilution method; format: functional
[3] = Minimum inhibitory concentration against Trichophyton rubrum B68183 by microdilution method; format: functional
[4] = Minimum inhibitory concentration against Sporothrix schenckii B64284 by microdilution method; format: functional
Cryptococcus neoformans = experiment: Minimum inhibitory concentration against Cryptococcus neoformans B66663 by microdilution method; format: functional
[5] = Bioavailability in plasma of Microsporum canis infected guinea pig after […] administration of 2 mg/kg dose; format: ADME, organism-based, Cavia porcellus; conditions: read-out: Activity

| Structure (SMILES) | MIC (Candida parapsilosis) | MIC (Aspergillus fumigatus) | MIC [1] | MIC [2] | MIC [3] | MIC [4] | MIC (Cryptococcus neoformans) | bioavailability [5] |
| --- | --- | --- | --- | --- | --- | --- | --- | --- |
| CCc1ccc(C2=NCc3ccccc3-n3cccc32)cc1 | 0.32 µM (≈ 0.0916 µg/mL) | 1 µM (≈ 0.286 µg/mL) | 0.32 µM (≈ 0.0916 µg/mL) | 0.32 µM (≈ 0.0916 µg/mL) | 0.065 µM (≈ 0.0186 µg/mL) | 100 µM (≈ 28.6 µg/mL) | 100 µM (≈ 28.6 µg/mL) | – |
| Clc1ccc(C2NCc3c(Cl)cccc3-n3cccc32)cc1 (centres undefined) | 100 µM (≈ 32.9 µg/mL) | 51.6 µM (≈ 17 µg/mL) | 0.66 µM (≈ 0.217 µg/mL) | 0.66 µM (≈ 0.217 µg/mL) | 0.32 µM (≈ 0.105 µg/mL) | 100 µM (≈ 32.9 µg/mL) | 100 µM (≈ 32.9 µg/mL) | – |
| CCc1ccc(C2NCc3ccccc3-n3cccc32)cc1 (centres undefined) | 100 µM (≈ 28.8 µg/mL) | 1 µM (≈ 0.288 µg/mL) | 3.2 µM (≈ 0.923 µg/mL) | 100 µM (≈ 28.8 µg/mL) | 1 µM (≈ 0.288 µg/mL) | 100 µM (≈ 28.8 µg/mL) | 100 µM (≈ 28.8 µg/mL) | – |
| CCc1ccc(C2=NCc3ccc(Cl)cc3-n3cccc32)cc1 | 1 µM (≈ 0.321 µg/mL) | 0.32 µM (≈ 0.103 µg/mL) | 0.1 µM (≈ 0.0321 µg/mL) | 0.32 µM (≈ 0.103 µg/mL) | 0.065 µM (≈ 0.0209 µg/mL) | 6.6 µM (≈ 2.12 µg/mL) | 1 µM (≈ 0.321 µg/mL) | – |
| Clc1cccc2c1CNC(c1ccc(Br)cc1)c1cccn1-2 (centres undefined) | 100 µM (≈ 37.4 µg/mL) | 10 µM (≈ 3.74 µg/mL) | 0.21 µM (≈ 0.0785 µg/mL) | 0.32 µM (≈ 0.12 µg/mL) | 0.21 µM (≈ 0.0785 µg/mL) | 100 µM (≈ 37.4 µg/mL) | 100 µM (≈ 37.4 µg/mL) | – |
| Cc1ccc(C2NCc3c(Cl)cccc3-n3cccc32)cc1 (centres undefined) | 100 µM (≈ 30.9 µg/mL) | 100 µM (≈ 30.9 µg/mL) | 2.1 µM (≈ 0.649 µg/mL) | 2.1 µM (≈ 0.649 µg/mL) | 0.1 µM (≈ 0.0309 µg/mL) | 100 µM (≈ 30.9 µg/mL) | 100 µM (≈ 30.9 µg/mL) | – |
| CCc1ccc(C2NCc3cccc(Cl)c3-n3cccc32)cc1 (centres undefined) | 100 µM (≈ 32.3 µg/mL) | 100 µM (≈ 32.3 µg/mL) | 3.2 µM (≈ 1.03 µg/mL) | 3.2 µM (≈ 1.03 µg/mL) | 1 µM (≈ 0.323 µg/mL) | 100 µM (≈ 32.3 µg/mL) | 100 µM (≈ 32.3 µg/mL) | – |
| CCc1cccc(C2NCc3c(Cl)cccc3-n3cccc32)c1 (centres undefined) | 10 µM (≈ 3.23 µg/mL) | 10 µM (≈ 3.23 µg/mL) | 1 µM (≈ 0.323 µg/mL) | 1 µM (≈ 0.323 µg/mL) | 0.1 µM (≈ 0.0323 µg/mL) | 100 µM (≈ 32.3 µg/mL) | 100 µM (≈ 32.3 µg/mL) | – |
| Clc1cccc2c1CNC(c1ccccc1)c1cccn1-2 (centres undefined) | 100 µM (≈ 29.5 µg/mL) | 100 µM (≈ 29.5 µg/mL) | 100 µM (≈ 29.5 µg/mL) | 100 µM (≈ 29.5 µg/mL) | 0.32 µM (≈ 0.0943 µg/mL) | 100 µM (≈ 29.5 µg/mL) | 100 µM (≈ 29.5 µg/mL) | – |
| CCc1ccc(C2NCc3c(C)cccc3-n3cccc32)cc1 (centres undefined) | 55 µM (≈ 16.6 µg/mL) | 100 µM (≈ 30.2 µg/mL) | 1 µM (≈ 0.302 µg/mL) | 2.1 µM (≈ 0.635 µg/mL) | 0.21 µM (≈ 0.0635 µg/mL) | 100 µM (≈ 30.2 µg/mL) | 100 µM (≈ 30.2 µg/mL) | – |
| CCc1ccc(C2NCc3c(F)cccc3-n3cccc32)cc1 (centres undefined) | 10 µM (≈ 3.06 µg/mL) | 10 µM (≈ 3.06 µg/mL) | 1 µM (≈ 0.306 µg/mL) | 3.2 µM (≈ 0.98 µg/mL) | 0.32 µM (≈ 0.098 µg/mL) | 100 µM (≈ 30.6 µg/mL) | 100 µM (≈ 30.6 µg/mL) | – |
| CCc1ccc(C2c3cccn3-c3cccc(Cl)c3CN2C)cc1 (centres undefined) | 100 µM (≈ 33.7 µg/mL) | 100 µM (≈ 33.7 µg/mL) | 55 µM (≈ 18.5 µg/mL) | 100 µM (≈ 33.7 µg/mL) | 51.6 µM (≈ 17.4 µg/mL) | 100 µM (≈ 33.7 µg/mL) | 100 µM (≈ 33.7 µg/mL) | – |
| CCc1ccc(C2NCc3c(SC)cccc3-n3cccc32)cc1 (centres undefined) | 100 µM (≈ 33.4 µg/mL) | 100 µM (≈ 33.4 µg/mL) | 3.2 µM (≈ 1.07 µg/mL) | 3.2 µM (≈ 1.07 µg/mL) | 0.32 µM (≈ 0.107 µg/mL) | 100 µM (≈ 33.4 µg/mL) | 100 µM (≈ 33.4 µg/mL) | – |
| CCc1ccc(C2=NCc3c(Cl)cccc3-n3cccc32)cc1 | 0.32 µM (≈ 0.103 µg/mL) | 0.32 µM (≈ 0.103 µg/mL) | 0.03 µM (≈ 0.00962 µg/mL) | 0.03 µM (≈ 0.00962 µg/mL) | 0.01 µM (≈ 0.00321 µg/mL) | 100 µM (≈ 32.1 µg/mL) | 100 µM (≈ 32.1 µg/mL) | – |
| CCc1ccc(C2NCc3c(Cl)cccc3-n3cccc32)cc1 (centres undefined) | 1 µM (≈ 0.323 µg/mL) | 3.2 µM (≈ 1.03 µg/mL) | 0.1 µM (≈ 0.0323 µg/mL) | 0.32 µM (≈ 0.103 µg/mL) | 0.03 µM (≈ 0.00969 µg/mL) | 100 µM (≈ 32.3 µg/mL) | 100 µM (≈ 32.3 µg/mL) | – |
| CCc1ccc([C@H]2NCc3c(Cl)cccc3-n3cccc32)cc1 | 0.32 µM (≈ 0.103 µg/mL) | 1 µM (≈ 0.323 µg/mL) | 0.01 µM (≈ 0.00323 µg/mL) | 0.32 µM (≈ 0.103 µg/mL) | 0.03 µM (≈ 0.00969 µg/mL) | 100 µM (≈ 32.3 µg/mL) | 100 µM (≈ 32.3 µg/mL) | < 5% |
| CCc1ccc(C2NCc3cc(Cl)ccc3-n3cccc32)cc1 (centres undefined) | 100 µM (≈ 32.3 µg/mL) | 100 µM (≈ 32.3 µg/mL) | 51.6 µM (≈ 16.7 µg/mL) | 100 µM (≈ 32.3 µg/mL) | 3.2 µM (≈ 1.03 µg/mL) | 100 | 100 µM (≈ 32.3 µg/mL) | – |
| CC(C)(C)c1ccc(C2NCc3c(Cl)cccc3-n3cccc32)cc1 (centres undefined) | 55 µM (≈ 19.3 µg/mL) | 100 µM (≈ 35.1 µg/mL) | 1 µM (≈ 0.351 µg/mL) | 0.66 µM (≈ 0.232 µg/mL) | 1 µM (≈ 0.351 µg/mL) | 55 µM (≈ 19.3 µg/mL) | 100 µM (≈ 35.1 µg/mL) | – |
| CCc1ccc([C@@H]2NCc3c(Cl)cccc3-n3cccc32)cc1 | 100 µM (≈ 32.3 µg/mL) | 55 µM (≈ 17.8 µg/mL) | 1 µM (≈ 0.323 µg/mL) | 0.32 µM (≈ 0.103 µg/mL) | 0.32 µM (≈ 0.103 µg/mL) | 100 µM (≈ 32.3 µg/mL) | 100 µM (≈ 32.3 µg/mL) | – |
| CCc1ccccc1C1NCc2c(Cl)cccc2-n2cccc21 (centres undefined) | 100 µM (≈ 32.3 µg/mL) | 100 µM (≈ 32.3 µg/mL) | 100 µM (≈ 32.3 µg/mL) | 100 µM (≈ 32.3 µg/mL) | 10 µM (≈ 3.23 µg/mL) | 100 µM (≈ 32.3 µg/mL) | 100 µM (≈ 32.3 µg/mL) | – |
| CCc1ccc(C2NCc3c(OC)cccc3-n3cccc32)cc1 (centres undefined) | 100 µM (≈ 31.8 µg/mL) | 100 µM (≈ 31.8 µg/mL) | 10 µM (≈ 3.18 µg/mL) | 10 µM (≈ 3.18 µg/mL) | 3.2 µM (≈ 1.02 µg/mL) | 100 µM (≈ 31.8 µg/mL) | 100 µM (≈ 31.8 µg/mL) | – |
| CCc1ccc(C2NCc3ccc(Cl)cc3-n3cccc32)cc1 (centres undefined) | 100 µM (≈ 32.3 µg/mL) | 100 µM (≈ 32.3 µg/mL) | 1 µM (≈ 0.323 µg/mL) | 1 µM (≈ 0.323 µg/mL) | 0.1 µM (≈ 0.0323 µg/mL) | 100 µM (≈ 32.3 µg/mL) | 100 µM (≈ 32.3 µg/mL) | – |
| CCCc1ccc(C2NCc3c(Cl)cccc3-n3cccc32)cc1 (centres undefined) | 6.6 µM (≈ 2.22 µg/mL) | 100 µM (≈ 33.7 µg/mL) | 0.66 µM (≈ 0.222 µg/mL) | 0.66 µM (≈ 0.222 µg/mL) | 0.32 µM (≈ 0.108 µg/mL) | 100 µM (≈ 33.7 µg/mL) | 100 µM (≈ 33.7 µg/mL) | – |
| CN(C/C=C/C#CC(C)(C)C)Cc1cccc2ccccc12 [TERBINAFINE] | 0.32 µM (≈ 0.0933 µg/mL) | 0.32 µM (≈ 0.0933 µg/mL) | 0.01 µM (≈ 0.00291 µg/mL) | 0.03 µM (≈ 0.00874 µg/mL) | 0.003 µM (≈ 0.000874 µg/mL) | 0.32 µM (≈ 0.0933 µg/mL) | 1 µM (≈ 0.291 µg/mL) | – |
